This is an account of results in patent publication US10010535B2, “Desferrithiocin analogs and uses thereof” (University of Florida Research Foundation, Incorporated, priority 2013, dated 2018).

Data set [1] can be described thus: Octanol-water partition, shake flask (log Papp). It counts as physicochemical. The conditions noted are these: pH 7.4, Tris buffer. How it is done:
The partition values between octanol and water (at pH 7.4, Tris buffer) were determined using a “shake flask” direct method of measuring log Papp values (Sangster et al., Octanol-Water Partition Coefficients: Fundamentals and Physical Chemistry; John Wiley and Sons: West Sussex, England, 1997; Vol. 2). The fraction of compound in the octanol is then expressed as log Papp. […] This is likely due to the presence of the aromatic nitrogen, a moderately good hydrogen bond accepter, on the DFT analogs.

A short description of data set [2]: Job's plot stoichiometry of Fe(III) complexes. It counts as binding. The conditions noted are these: [DFT analog]+[Fe(III)]=1.0 mM, Tris-HCl pH 7.4; theoretical 0.667 for 2:1. The protocol: Solutions containing DFT analog/Fe(III) at different ratios were prepared such that [DFT analog]+[Fe(III)]=1.0 mM in Tris-HCl buffer at pH 7.4. The theoretical mole fraction maximum for a 2:1 DFT analog:Fe complex is 0.667 (indicated by an arrow).
In each instance, the DFT analogs formed 2:1 complexes with Fe(III). […] A 100 mM Tris HCl buffer was used to maintain the pH at 7.4. Solutions containing different DFT analog/Fe(III) ratios were prepared by mixing appropriate volumes of 1.0 mM DFT analog solution and 1.0 mM Fe(III)-nitriloacetate (NTA) in Tris-HCl buffer. The 1.0 mM Fe(III)-NTA solution was prepared immediately prior to use by dilution of a 41.6 mM Fe(III)-NTA stock solution with the Tris HCl buffer, whereas the DFT analog stock solution was prepared by dissolving the DFT analog as its monosodium salt in Tris HCl buffer at pH 7.4. The Fe(III)-NTA stock solution was prepared by mixing equal volumes of […] of FeCl3 and 180 mM trisodium NTA. The iron content of the Fe(III)-NTA solution was verified by atomic absorption spectrophotometry (AAS).

Data set [3] in a line: 1H NMR hydrogen-deuterium exchange study. Type of data set: physicochemical. The conditions noted are these: 25° C., pH 7.0, phosphate buffer (0.1 M). How it is done: The ratio of the (unexchanged) to the (original) was measured by the diminution of δ 6.33 (d, H-3′, J=2.3) relative to the integration of δ 6.39 (d, H-5′, J=9.0) at time points to 104 min. […] (unexchanged) to the [I-1] (original) was measured by the diminution of δ 6.41 (d, H-4′, J=2.3) relative to the integration of δ 7.54 (d, H-6′, J=2.3) at time points to 16 h. Plots of the natural log of [compound]
Quinone formation could result in redox cycling and, at a cellular level, untoward side effects. […] The exchange rate order is understandable.

Data set [4] relates to urinary Kim-1 excretion. The conditions noted are these: for renal toxicity (Kim-1, BUN, SCr), summary: rat, in vivo. How it is done: The compounds were administered to the rats po as their monosodium salts, prepared as described above, twice daily at a dose of 237 μmol/kg/dose (474 μmol/kg/d) for up to 7 d. The studies were performed on rats with normal iron stores. The rats were fasted overnight and were given the first dose of the compound first thing in the morning. The rats were fed ˜3 h post-dose and had access to food for ˜5 h before being fasted overnight.
The rats were housed in individual metabolic cages. […] A baseline (day 0) urine sample was collected and assessed for its Kim-1 content; each animal served as its own control. The urine was collected chilled as previously described (Bergeron et al., “Desferrithiocin Analog Iron Chelators: Iron Clearing Efficiency, Tissue Distribution, and Renal Toxicity.” Biometals, 2011, 24, 239-258).
The chilled urine was collected, vortexed, and warmed to room temperature; any sediment in the samples was allowed to settle. Kim-1 content was assessed using a Rat Kim-1 Rapid Test Kit according to the manufacturer's instructions. The result was read using a ReaScan Test Reader. […] Data are presented as the mean±the standard error of the mean; p-values were generated via a one-tailed Student's t-test in which the inequality of variances was assumed; and a p-value of <0.05 was considered significant.
Assessment of chelator-induced impaired renal function has traditionally relied on the detection of a rise in blood urea nitrogen (BUN) and/or serum creatinine (SCr). However, because of the functional reserve of the kidney, these parameters are often unreliable indicators of acute kidney injury; the ultimate answer requires histopathology. […] BioAssay Works has recently developed RenaStick, a direct lateral flow immunochromato-graphic assay, which allows for the rapid detection (less than 30 minutes) and quantitation of urinary Kim-1 (rat) or KIM-1 (human) excretion (Vaidya et al., “A Rapid Urine Test for Early Detection of Kidney Injury.” Kidney. Int. 2009, 76, 108-114). […] The studies were performed on rats with normal iron stores; each animal served as their own control.

For data set [5], the system named is iron excretion. The data set can be described thus: Iron-clearing efficiency in iron-overloaded primates (fecal and urine samples). Type of data set: in vivo, Cebus apella monkeys. How it is done: At least 20 half-lives, 60 days (Wood et al., “The Metabolism of Iron-Dextran Given As a Total-Dose Infusion to Iron Deficient Jamaican Subjects.” Br. J. Hamaetol. 1968, 14, 119-129), elapsed before any of the animals were used in experiments evaluating iron-chelating agents.
Briefly, the collections began 4 days prior to the administration of the test compound and continued for an additional 5 days after the compound was given. Iron concentrations were determined by flame absorption spectroscopy as presented in other publications (Bergeron et al., “A Comparative Evaluation of Iron Clearance Models.” Ann. N.Y. Acad. Sci. 1990, 612, 378-393; Bergeron et al., “Synthesis and Biological Evaluation of Naphthyldesferrithiocin Iron Chelators.” J. Med. Chem. 1996, 39, 1575-1581).
In the text below, the term “iron-clearing efficiency” (ICE) is used as a measure of the amount of iron excretion induced by a chelator. The ICE, expressed as a percent, is calculated as (compound-induced iron excretion/theoretical iron excretion)×100. To illustrate, the theoretical iron excretion after administration of one millimole of desferrioxamine B mesylate (DFO) (FIG. 3), a hexadentate chelator that forms a 1:1 complex with Fe(III), is one milli-g-atom of iron. Two millimoles of desferrithiocin (DFT) (Table 1), a tridentate iron chelator that forms a 2:1 complex with Fe(III), are required for the theoretical excretion of one milli-g-atom of iron. The theoretical iron outputs of the chelators were generated on the basis of a 2:1 compound:iron complex. The efficiencies in the rats and monkeys were calculated as set forth elsewhere (Bergeron et al., “Effects of C-4 Stereochemistry and C-4′ Hydroxylation on the Iron Clearing Efficiency and Toxicity of Desferrithiocin Analogs.” J. Med. Chem. 1999, 42, 2432-2440; Bergeron et al., “HBED: A Potential Alternative to Deferoxamine for Iron-Chelating Therapy.” Blood 1998, 91, 1446-1452).

The subject of data set [6] is iron excretion. The conditions noted are these: cited from earlier work; for relative percentages of the iron excreted in the bile and urine: rodents.
The test system of data set [7] is iron excretion. The conditions noted are these: po 75 μmol/kg, cited from earlier work; for relative percentages of the iron excreted in the feces and urine: primates.
For data set [8] the following is noted: in vivo; cited from earlier work.
For data set [9] the following is noted: oral; cited from earlier work.
Data set [10] deals with urinary Kim-1 excretion. The conditions noted are these: cited from earlier work.
Where [11] appears, read: day 8, after 237 μmol/kg twice daily × 7 d.
The mark [12] stands for this setting: po twice daily 237 μmol/kg/dose × 7 d.
The mark [13] stands for this setting: po once daily 28 d, once daily 384 μmol/kg/d × 10 d, twice daily 237 μmol/kg/dose × 7 d.

SMILES strings stand for the structures. Read-outs that look alike come from different tables or passages of the source.

In the case of `C[C@]1(C(=O)O)CSC(c2ncc(O)cc2O)=N1` [I-1, (S)-4,5-Dihydro-2-(3,5-dihydroxy-2-pyridinyl)-4-methyl-4-thiazolecarboxylic Acid], the LogPapp in data set [1] is −1.68. Further, the “observed mole fraction maximum in Job's plot” value in data set [2] turned out to be 0.669. The “Exchange Rate (s^−1), hydrogen-deuterium exchange” value in data set [3] worked out at 3.3e-06 s⁻¹. In the data set with urinary Kim-1 excretion [4] (setting [11]), this compound registered a BUN of 13 ± 2 mg/dL and an SCr of 0.5 ± 0.1 mg/dL. Further, the “renal toxicity (Kim-1, BUN, SCr), summary” value (shortened to “renal toxicity”) in the data set with urinary Kim-1 excretion [4] is reported as “some nephrotoxicity”.

Consider `COCCOCCOc1cnc(C2=N[C@@](C)(C(=O)O)CS2)c(O)c1` [I-2, (S)-4,5-Dihydro-2-[3-hydroxy-5-(3,6-dioxaheptyloxy)-2-pyridinyl]-4-methyl-4-thiazolecarboxylic Acid], for which, in data set [1], the LogPapp is given as −1.59. Also, the “observed mole fraction maximum in Job's plot” value in data set [2] came out at 0.676. The “Exchange Rate (s^−1), hydrogen-deuterium exchange” value in [3] is “No change and none and No exchange”. Also, in the data set with urinary Kim-1 excretion [4] (po twice daily 237 μmol/kg/dose (474 μmol/kg/d), up to 7 d, rats with normal iron stores), the “survival of dosing period” value is on record as “All of the animals survived the compound dosing regimen”. For the same compound, in the data set with urinary Kim-1 excretion [4] (setting [12]), the “BUN and SCr” value is “well within the normal range”; the “urinary Kim-1 excretion versus baseline (day 0)” value is on record as “remained within error of that of the baseline (day 0) levels”. In addition, the “renal toxicity” value with urinary Kim-1 excretion [4] was “little to no impact on renal function”.

With `C[C@]1(C(=O)O)CSC(c2ccccc2O)=N1` [compound 2, desazadesferrithiocin], the “Performance ratio (PR), mean ICEprimates/ICErodents” value in the data set with iron excretion [5] (primates po / rodents po) is given as 8.0. Further, in data set [1], the LogPapp was −0.34. For the same compound, the “Rodent Iron-Clearing Efficiency (%)” value with iron excretion [6] (po 150 μmol/kg, solubilized in 40% Cremophor RH-40/water) is listed as 2.7±0.5%. In the data set with iron excretion [6] (po 150 μmol/kg, 40% Cremophor RH-40/water), the “relative percentages of the iron excreted in the bile and urine” value (from here on “relative percentages … in the bile and urine”) was 100/0. In the data set with iron excretion [7], the “Primate Iron-Clearing Efficiency (%)” value is 21.5±12%; the “relative percentages of the iron excreted in the feces and urine” value is 76/24. Further, in [8], the gastrointestinal toxicity entry was “serious gastrointestinal (GI) problems” and the nephrotoxicity result is “not overtly nephrotoxic”.

As for `COCCOCCOCCOc1cccc(C2=N[C@@](C)(C(=O)O)CS2)c1O` [compound 5, (S)-4,5-dihydro-2-[2-hydroxy-3-(3,6,9-trioxadecyloxy)]-4-methyl-4-thiazolecarboxylic acid], the nephrotoxicity result in [9] is listed as “the renal toxicity virtually disappeared”.

On to `COCCOCCOc1ccc(C2=N[C@@](C)(C(=O)O)CS2)c(O)c1` [compound 7], for which, in the data set on iron excretion [5] (primates po, capsule), the “Performance ratio (PR), mean ICEprimates/ICErodents” value was determined as 1.0. The “Performance ratio (PR), mean ICEprimates/ICErodents” value in the data set with iron excretion [5] (primates po, sodium salt) was 1.1. The LogPapp in data set [1] was −0.89. In addition, the “Rodent Iron-Clearing Efficiency (%)” value in the data set on iron excretion [6] (po 300 μmol/kg, capsules, 48-h sample collection) was 26.7±4.7%. The “relative percentages … in the bile and urine” value in the data set with iron excretion [6] (po 300 μmol/kg, capsules, 48 h) is reported as 97/3. In the data set with iron excretion [7] (capsule), the “Primate Iron-Clearing Efficiency (%)” value is 26.3 ± 9.9%; the “relative percentages of the iron excreted in the feces and urine” value was 93/7. In the data set on iron excretion [7] (sodium salt), the “Primate Iron-Clearing Efficiency (%)” value is recorded as 28.7 ± 12.4%; the “relative percentages of the iron excreted in the feces and urine” value is given as 83/17. In addition, the nephrotoxicity entry in data set [9] is reported as “the renal toxicity virtually disappeared”. For the same compound, in the data set with urinary Kim-1 excretion [10] (setting [13]), the “BUN and SCr” value is “well within the normal range”; the “survival of dosing period” value is given as “All of the rats survived the dosing period”; the “urinary Kim-1 content versus baseline (day 0)” value is given as “stayed within error of this value”. Also, the “renal toxicity” value in the data set on urinary Kim-1 excretion [10] (rat, in vivo) was “little to no impact on renal function”.

`COCCOCCOc1cccc(C2=N[C@@](C)(C(=O)O)CS2)c1O` [compound 9] registered a LogPapp in data set [1] of −0.96. Moreover, in the data set with iron excretion [6] (po 300 μmol/kg, monosodium salt, 48-h sample collection), the “Rodent Iron-Clearing Efficiency (%)” value is listed as 15.1 ± 2.0%. Besides, in the data set on iron excretion [6] (po 300 μmol/kg, monosodium salt, 48 h), the “relative percentages … in the bile and urine” value is 99/1. In the data set with iron excretion [7], the “Primate Iron-Clearing Efficiency (%)” value is listed as 22.5 ± 6.4%; the “relative percentages of the iron excreted in the feces and urine” value is 86/14.
